Test results from patent US5733913A, “6-Aryl pyrido[2,3-d] pyrimidines and naphthyridines for inhibiting protein tyrosine kinase mediated cellular proliferation” (priority 1995, dated 1998).
pIC50: −log10 of the molar value. Read-outs that look alike come from different tables or passages of the source.

Experiments:
[1] = tested on: Rat aorta smooth muscle cells (RASMC); assay: [3H]-Thymidine incorporation assay in RASMC; format: cell-based; conditions: read-out: Inhibition of Growth Factor Stimulated Uptake of [3H]-thymidine (IC50)
Procedure: Cell Culture Rat aorta smooth muscle cells (RASMC) were isolated from the thoracic aorta of rats and explanted according to the method of Ross, J. Cell. Biol., 30:172-186 (1971). Cells were grown in Dulbecco's modified Eagle's medium (DMEM, Gibco) containing 10% fetal calf serum (FBS, Hyclone, Logan, Utah), 1% glutamine (Gibco) and 1% penicillin/streptomycin (Gibco). Cells were identified as smooth muscle cells by their "hill and valley" growth pattern and by fluorescent staining with a monoclonal antibody specific for SMC […] (Sigma). RASMC were used between passages 5 and 20 for all experiments. Test compounds were prepared in dimethylsulfoxide (DMSO) in order to achieve consistency in the vehicle and to ensure compound solubility. Appropriate DMSO controls were simultaneously evaluated with the test compounds. […] RASMC were plated into a 24-well plate (30,000 cells/well) in DMEM with 10% FBS. After 4 days, cells reached confluence and were made quiescent by incubation in DMEM/F12 medium (Gibco) containing 0.2% FBS for another 2 days. […] […] The acid-insoluble fraction was lysed in 0.75 mL 0.25N NaOH and the radioactivity determined by liquid scintillation counting. IC50 values were determined graphically.

V-src kinase = V-src kinase assay; format: biochemical; conditions: at 50 μM
Outline: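 Baculovirus-expressed v-src or c-src, immunopurified on antibody-coated latex beads, phosphorylated poly GluTyr with 5 μM ATP including [32P]-ATP in Tris pH 7.5/MgCl2. Reaction ran 10 min at room temperature, TCA/pyrophosphate quench, then filtered. Incorporated label counted by liquid scintillation and compared with solvent control.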

[2] = target: T1, human FGF-1 (flg) receptor tyrosine kinase (Homo sapiens, UniProt P11362); assay: FGF receptor tyrosine kinase assay; format: biochemical; conditions: read-out: Inhibition of Protein Tyrosine Kinases, FGF, IC50
T1 construct: a fragment of DNA that codes for the intracellular tyrosine kinase domain; made in house; host or cells: Sf9 insect cells (baculovirus), cell lysate
T1 sequence (P11362 478-767 limits assumed): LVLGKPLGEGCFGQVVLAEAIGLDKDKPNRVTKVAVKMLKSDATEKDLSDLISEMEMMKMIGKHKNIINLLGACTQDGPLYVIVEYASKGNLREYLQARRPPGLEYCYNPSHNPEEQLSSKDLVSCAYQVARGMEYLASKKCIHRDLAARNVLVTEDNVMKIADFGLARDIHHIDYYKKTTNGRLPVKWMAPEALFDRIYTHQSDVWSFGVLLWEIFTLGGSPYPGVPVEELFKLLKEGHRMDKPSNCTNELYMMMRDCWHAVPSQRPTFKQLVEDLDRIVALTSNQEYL
Outline: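 Intracellular kinase domains expressed in baculovirus-infected SF9 cells; crude lysate used as enzyme. Inhibitor preincubated 10 min at 25 °C with lysate in pH 7.0 Hepes buffer with 10 mM MnCl2 and poly(Glu-Tyr) 4:1, then γ-32P-ATP (50 μM ATP) added for 10 min at 25 °C. TCA-precipitated 32P on filters counted, no-enzyme background subtracted.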

C-src kinase = target: T2, C-src kinase (Homo sapiens, UniProt P12931); assay: C-src kinase assay; format: biochemical; conditions: read-out: Inhibition of Protein Tyrosine Kinases, C-src, IC50
T2 construct: made in house; host or cells: baculovirus-infected insect cells
T2 sequence (P12931 whole entry): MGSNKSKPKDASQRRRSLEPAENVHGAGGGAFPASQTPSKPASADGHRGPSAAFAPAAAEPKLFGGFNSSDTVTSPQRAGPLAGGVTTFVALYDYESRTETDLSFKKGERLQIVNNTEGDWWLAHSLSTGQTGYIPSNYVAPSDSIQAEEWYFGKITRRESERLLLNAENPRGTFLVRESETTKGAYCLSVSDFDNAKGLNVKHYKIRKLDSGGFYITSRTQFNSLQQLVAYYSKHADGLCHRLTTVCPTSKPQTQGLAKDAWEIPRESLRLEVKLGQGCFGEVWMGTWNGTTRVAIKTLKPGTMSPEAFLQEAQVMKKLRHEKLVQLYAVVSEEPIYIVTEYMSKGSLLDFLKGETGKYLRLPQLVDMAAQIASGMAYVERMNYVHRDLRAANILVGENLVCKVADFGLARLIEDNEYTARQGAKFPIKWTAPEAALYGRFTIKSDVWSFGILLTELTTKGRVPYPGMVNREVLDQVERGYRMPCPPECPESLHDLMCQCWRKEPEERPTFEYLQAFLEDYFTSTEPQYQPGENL
Outline: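 Baculovirus-expressed c-src immunopurified on antibody-coated latex beads, assayed in 40 mM Tris pH 7.5, 5 mM MgCl2 with poly GluTyr substrate and 5 μM ATP plus 32P-ATP. Reaction 10 min at room temperature, TCA-quenched, filtered; incorporated label counted by scintillation.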

With `Cc1ccccc1-c1cc2cnc(N)nc2nc1N` [Example 90, 6-o-Tolyl-pyrido[2,3-d]pyrimidine-2,7-diamine] as the molecule, how does the pIC50 ([1]; FGF stimulated) read?
Its pIC50 is 4.70.

What about the pIC50 ([1]; PDGF stimulated) of the same molecule?
Its pIC50 is under 5.00.

What about the “Inhibition of Protein Tyrosine Kinases, V-src, % Inhibition” value (V-src kinase) of the same molecule?
The value was 16.8%.

What about the pIC50 [2] of the same molecule?
Its pIC50 is 4.94.

What about the pIC50 (C-src kinase) of the same molecule?
Its pIC50 is 5.79.
